Laboratory results as given in patent publication US20260108503A1, “POLYMERIC MICELLE NANOCARRIERS FOR TARGETED EPIDERMAL DELIVERY OF THE HEDGEHOG PATHWAY INHIBITOR TAK-441” (UNIVERSITÉ DE GENÈ DE GENÈVE, priority 2022, published 2026).
“Also recorded” adds a separate entry of the source.

Experiments:
[1] = cited from earlier work
[2] = Cutaneous delivery and biodistribution in vitro, Franz-type diffusion cells, porcine skin; assay type: in vitro ADME; conditions: 12 h application
From the text: Porcine ears were purchased from a local abattoir (CARRE; Rolle, Switzerland) shortly after sacrifice. After washing under running cold water, skin samples with a thickness of approximately 0.8 mm were carefully harvested from the outer region of the ear using a Zimmer air dermatome (Münsingen, Switzerland). Hair was removed from the skin surface using clippers. Discs corresponding to the permeation area were punched out (Berg & Schmid HK 500; Urdorf, Switzerland). Skin samples were frozen at −20° C. and stored for a maximum period of 3 months. Before the experiment, skin samples were thawed at room temperature and placed for 15 min in 0.9% saline solution for rehydration. […]
(§1) TAK-441 had the least solubility in HPC; this characteristic would minimize the risk of interference of the suspending agent on drug delivery. […] After centrifugation at 10,000 rpm for 15 min, the permeation samples were analyzed by UHPLC-MS/MS. […]
Upon completion of the experiment, a punch was used to separate the skin sample into two parts—an inner disk with a surface area of 0.785 cm^2 and a remaining outer ring with an area of 1.215 cm^2. This outer ring was subsequently cut into small pieces, and TAK-441 deposited in the tissue was extracted by the validated extraction method (section 1.4.5.2) followed by quantification using UHPLC-MS/MS. […]

HH pathway = conditions: NIH3T3 cells, Gli-reporter luciferase; read-out: IC50, inhibition of the hedgehog pathway; cited from earlier work
[3] = Determination of TAK-441 content in the micelles (UHPLC-MS/MS); assay type: physicochemical; conditions: incorporation of TAK-441 in TPGS micelles
Description: TAK-441 loaded into the micelles was quantified by UHPLC-MS/MS. To ensure complete micelle destruction and release of the incorporated drug, formulations were diluted in acetonitrile and analyzed. The drug content, drug loading, and entrapment efficiency were calculated using equations 1-3: […]

[4] = target: vismodegib-resistant SMO mutant D473H (Homo sapiens, UniProt Q99835, D473H); conditions: cited from earlier work
[5] = Cutaneous delivery and biodistribution in vitro, Franz-type diffusion cells, human skin; assay type: in vitro ADME
Description: Human skin samples were obtained shortly after surgery from the Department of Plastic, Aesthetic and Reconstructive Surgery, Geneva University Hospital (Geneva, Switzerland), fatty tissue was removed and the skin was stored at −20° C. The donation was approved by the Central Committee for Ethics in Research (CER: 08-150 (NAC08-051); Geneva University Hospital).
The experiments were performed using standard two-compartment vertical (Franz-type) diffusion cells, (Milian SA; Meyrin, Switzerland) with a cross-sectional area of 2 cm^2. The receptor compartment consisted of 10-mL Dulbecco's phosphate-buffered saline (DPBS) pH 7.4 containing 1% BSA to maintain sink conditions. The receiver compartment was maintained between 32° C.-34° C. For infinite dose conditions, 200 μL of TAK-441 micelle formulation (3 mg/mL) was applied to the skin sample surface (i.e., 300 μg of TAK-441/cm^2 of the skin surface) and for finite dose, 20 μL of micelle formulation (3 mg/mL) was applied (30 μg of TAK-441/cm^2 of the skin surface). […]
as §1
Upon completion of the experiment, a punch was used to separate the skin sample into two parts—an inner disk with a surface area of 0.785 cm^2 and a remaining outer ring with an area of 1.215 cm^2. This outer ring was subsequently cut into small pieces, and TAK-441 deposited in the tissue was extracted by the validated extraction method (section 1.4.5.2) followed by quantification using UHPLC-MS/MS.
The 0.785-cm^2 disks were used to determine the TAK-441 biodistribution as a function of depth in the skin. […] These lamellae enabled the amounts of TAK-441 to be determined as a function of position in the skin, encompassing the stratum corneum, epidermis, and upper dermis, respectively. Each lamella and the remaining dermis were individually extracted in 250-μL methanol for 4 h and TAK-441 was quantified by UHPLC-MS/MS.

[6] = cited from earlier work; remark: listed apart in the source
Gli1 expression = conditions: oral, all doses (50 mg/day to 1600 mg/day); cited from earlier work
[7] = human, in vivo; cited from earlier work

Chain of vismodegib-resistant SMO mutant D473H (Q99835 28-787 D473H): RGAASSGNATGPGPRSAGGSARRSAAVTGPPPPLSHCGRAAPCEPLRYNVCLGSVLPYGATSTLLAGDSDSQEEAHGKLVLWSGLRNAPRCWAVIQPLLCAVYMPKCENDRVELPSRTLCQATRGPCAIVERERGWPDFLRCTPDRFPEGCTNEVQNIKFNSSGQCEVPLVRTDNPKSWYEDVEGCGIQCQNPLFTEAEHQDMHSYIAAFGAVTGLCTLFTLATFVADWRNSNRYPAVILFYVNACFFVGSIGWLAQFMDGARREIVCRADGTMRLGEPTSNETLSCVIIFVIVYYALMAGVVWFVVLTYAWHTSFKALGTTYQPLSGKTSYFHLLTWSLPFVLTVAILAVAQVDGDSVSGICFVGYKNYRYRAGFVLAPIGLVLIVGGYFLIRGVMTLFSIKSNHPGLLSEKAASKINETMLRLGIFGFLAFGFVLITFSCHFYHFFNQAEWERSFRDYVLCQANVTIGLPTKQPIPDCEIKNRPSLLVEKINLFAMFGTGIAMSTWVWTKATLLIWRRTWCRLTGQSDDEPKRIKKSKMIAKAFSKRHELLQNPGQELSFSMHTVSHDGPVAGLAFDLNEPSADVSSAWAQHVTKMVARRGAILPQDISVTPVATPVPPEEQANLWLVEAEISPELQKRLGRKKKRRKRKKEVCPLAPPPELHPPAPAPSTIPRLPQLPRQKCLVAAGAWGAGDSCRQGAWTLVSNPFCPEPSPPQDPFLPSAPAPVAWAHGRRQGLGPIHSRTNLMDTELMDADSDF

SMILES	log P [1]	cumulative permeation (receiver compartment below LOD) [2] [pg/cm^2]	IC50 (HH pathway) [nM]	increase of aqueous solubility [3]	activity against vismodegib-resistant Smoothened receptor D473H mutant [4]	cumulative permeation ([5]; conclusion, corresponding to LOD) [pg/cm^2]	concentrations in the permeation samples (below LOD) ([5]; conclusion, permeation samples, UHPLC-MS/MS) [ng/mL]	transdermal permeation across human skin ([5]; human skin, 12 h application)	death assessed to be study drug-related ([6]; cerebral hemorrhage, patient with pancreatic cancer)	patients who experienced at least one adverse effect (AE) ([6]; oral, Phase I)	patients who experienced serious AE ([6]; oral, Phase I)	Gli1 expression in skin biopsies (Gli1 expression)	treatment outcome in patients with resistance to vismodegib [7]
CCc1cc2c(c(OCC(F)(F)F)c(C(=O)NC3CCN(C(=O)CO)CC3)n2C)c(=O)n1CC(=O)c1ccccc1 [TAK-441]	2.61	< 0.1	4.4	approximately 40 fold	active; also recorded: effective	< 0.1	< 1.29	below the LOD	One death	All patients	Approximately 35%	strongly inhibited	
Cc1c(C(=O)Nc2ccc(N3C[C@@H](C)O[C@@H](C)C3)nc2)cccc1-c1ccc(OC(F)(F)F)cc1 [sonidegib]													ineffective
